In US12583861B2, “Derivatives of imidazo[4,5-d]pyridazine, their preparation and their therapeutic application” (SANOFI, priority 2021, dated 2026):

Tests used:
Format in all cases: cell-based
human TLR8 = target: T1, human TLR8 (Homo sapiens, UniProt Q9NR97); assay: HEK-Blue hTLR8 reporter cell assay (SEAP, NF-kB/AP-1) for stimulation of human TLR8; conditions: HEK-Blue hTLR8 cells, 24 h incubation, SEAP readout; read-out: TLR8_EC50
T1 construct: host or cells: HEK293 (HEK-Blue hTLR8)
T1 sequence (Q9NR97 27-1041): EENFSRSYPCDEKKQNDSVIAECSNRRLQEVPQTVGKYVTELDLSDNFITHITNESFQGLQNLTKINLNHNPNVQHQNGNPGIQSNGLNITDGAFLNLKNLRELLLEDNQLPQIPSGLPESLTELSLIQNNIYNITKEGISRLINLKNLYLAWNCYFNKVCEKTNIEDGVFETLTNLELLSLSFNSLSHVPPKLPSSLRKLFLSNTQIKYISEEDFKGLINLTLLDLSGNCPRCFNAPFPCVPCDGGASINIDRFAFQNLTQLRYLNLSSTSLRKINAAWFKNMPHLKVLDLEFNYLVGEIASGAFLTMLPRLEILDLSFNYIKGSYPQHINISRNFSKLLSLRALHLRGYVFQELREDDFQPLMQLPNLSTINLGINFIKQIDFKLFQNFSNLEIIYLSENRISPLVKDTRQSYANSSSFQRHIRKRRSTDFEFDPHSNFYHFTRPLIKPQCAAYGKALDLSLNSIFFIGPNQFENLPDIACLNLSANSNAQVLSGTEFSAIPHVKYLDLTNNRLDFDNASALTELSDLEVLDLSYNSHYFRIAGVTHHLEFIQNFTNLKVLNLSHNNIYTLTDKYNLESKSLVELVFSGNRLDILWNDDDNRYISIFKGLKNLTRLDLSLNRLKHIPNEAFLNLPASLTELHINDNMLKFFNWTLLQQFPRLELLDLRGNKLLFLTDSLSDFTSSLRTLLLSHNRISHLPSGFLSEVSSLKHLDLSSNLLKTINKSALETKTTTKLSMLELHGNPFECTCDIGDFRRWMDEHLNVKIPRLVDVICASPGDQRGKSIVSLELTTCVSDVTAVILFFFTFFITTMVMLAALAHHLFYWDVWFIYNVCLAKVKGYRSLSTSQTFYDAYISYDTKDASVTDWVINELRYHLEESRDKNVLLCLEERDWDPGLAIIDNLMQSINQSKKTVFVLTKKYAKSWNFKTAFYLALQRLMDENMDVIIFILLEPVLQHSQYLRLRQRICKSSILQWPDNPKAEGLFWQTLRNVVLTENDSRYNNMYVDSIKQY
How it was run: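 HEK293 cells carrying hTLR8 and a SEAP reporter driven by NF-κB/AP-1 sites were seeded at 3.10E4 cells/well and held 18 to 24 h at 37° C., 5% CO2 before compound addition. Supernatant SEAP measured with QUANTI-Blue™.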

IFN-α2a = IFN-α2a cytokine activation in human PBMC (MSD assay)
Procedure: (§1) The other below tests involving measuring the in vitro activity of some compounds of the disclosure on cytokines IFN-α2a, IL-6, IL29 and TNF-α were carried out using human PBMC (PBMCs).
(§2) The activity described below, with respect to TLR7, TLR8, IFN-α2a, IL-6, IL29 and TNF-α, is given by the half maximal effective concentration (EC50), which corresponds to the concentration required to obtain a 50% of the activation. The lower the EC50, the less the concentration of the compound is required to produce 50% of maximum activation and the higher the potency.
(§3) In Vitro Assay to Determine IFN-α2a, IL-6, IL29 and TNF-α Cytokine Activation:
(§4) Peripheral blood mononuclear cells were isolated by Ficoll density gradient centrifugation from peripheral blood samples obtained from healthy donors (EFS). Isolated PBMCs are washed twice with PBS and resuspended in RPMI-1640 medium supplement with 10% fetal bovine serum (FBS) at 5.10^5 cells/well in a 96-well plate. The cells were then incubated with the compounds to test at various doses (20 μM to 4.8.10-6 μM final) for 24 h at 37° C., 5% CO2. After 24 h treatment, the plates are centrifuged and the supernatant were collected and assayed for cytokines IFN-α2a, IL-6, IL29 and TNF-α using the Meso Scale Discovery (MSD) assay platform according to the manufacturer's instructions. Briefly, 25 μL of cell culture supernatants were incubated for 1 h at Room Temperature (RT) in custom Multi-Spot 96-well plates prior coated with capture antibodies. After washing, SULFO-TAG® labeled detection antibodies were added to each of the wells and incubated for 1 h RT before adding a read buffer.

IL29 = IL29 cytokine activation in human PBMC (MSD assay)
Procedure: as §1, §2, §3, §4

TNF-α = TNF-α cytokine activation in human PBMC (MSD assay)
Procedure: as §1, §2, §3, §4

SMILES	EC50 (human TLR8) [nM]	EC50 (IFN-α2a; 24 h) [nM]	EC50 (IL29; 24 h) [nM]	EC50 (TNF-α; 24 h) [nM]	EC50 (IFN-α2a; 24 h, 2,2,2-trifluoroacetate) [nM]	EC50 (IL29; 24 h, 2,2,2-trifluoroacetate) [nM]	EC50 (TNF-α; 24 h, 2,2,2-trifluoroacetate) [nM]	EC50 (IFN-α2a; Homo sapiens, PBMC, 24 h) [nM]	EC50 (IL29; Homo sapiens, PBMC, 24 h) [nM]	EC50 (TNF-α; Homo sapiens, PBMC, 24 h) [nM]
CCCCc1nc2c(N)nnc(OC(C)C)c2n1Cc1ccc(CN)cc1 [Compound 21, 1-(4-(aminomethyl)benzyl)-2-butyl-7-isopropoxy-1H-imidazo[4,5-d]pyridazin-4-amine]	1370	0.4	0.3	284	–	–	–	–	–	–
CCCCc1nc2c(N)nnc(OC(C)C)c2n1Cc1ccc(CN)cc1 [Compound 22, 1-(4-(aminomethyl)benzyl)-2-butyl-7-isopropoxy-1H-imidazo[4,5-d]pyridazin-4-amine 2,2,2-trifluoroacetate]	2610	–	–	–	0.1	0.1	2790	–	–	–
CCCCc1nc2c(N)nnc(OC(C)C)c2n1Cc1cccc(CN)c1 [Compound 33, 1-(3-(aminomethyl)benzyl)-2-butyl-7-isopropoxy-1H-imidazo[4,5-d]pyridazin-4-amine 2,2,2-trifluoroacetate]	336	–	–	–	–	–	–	3	2	1280
CCCCc1nc2c(N)nnc(OC(C)C)c2n1Cc1ccc(C=O)cc1 [Compound 34, 4-((4-amino-2-butyl-7-isopropoxy-1H-imidazo[4,5-d]pyridazin-1-yl)methyl)benzaldehyde]	> 20000	–	–	–	–	–	–	36	28	655
CCCCc1nc2c(N)nnc(OC(C)C)c2n1Cc1ccc(CO)cc1 [Compound 35, (4-((4-amino-2-butyl-7-isopropoxy-1H-imidazo[4,5-d]pyridazin-1-yl)methyl)phenyl)methanol]	> 20000	–	–	–	–	–	–	21	15	343
CCCCc1nc2c(N)nnc(N(C)C)c2n1C [Compound 41, 2-butyl-N7,N7,1-trimethyl-1H-imidazo[4,5-d]pyridazine-4,7-diamine]	7190	–	–	–	–	–	–	1220	3040	5200
CCCCc1nc2c(N)nnc(OCC)c2n1Cc1ccc(OC)cc1 [Compound 48, 2-butyl-7-ethoxy-1-(4-methoxybenzyl)-1H-imidazo[4,5-d]pyridazin-4-amine]	> 20000	–	–	–	–	–	–	89	99	903
CCCCc1nc2c(N)nnc(NCCOC)c2n1Cc1ccc(OC)cc1 [Compound 49, 2-butyl-1-(4-methoxybenzyl)-N7-(2-methoxyethyl)-1H-imidazo[4,5-d]pyridazine-4,7-diamine]	> 20000	–	–	–	–	–	–	75	388	5490
CCCCc1nc2c(N)nnc(N(C)C)c2n1Cc1ccc(OC)cc1 [Compound 71, 2-butyl-1-(4-methoxybenzyl)-N7,N7-dimethyl-1H-imidazo[4,5-d]pyridazine-4,7-diamine]	> 20000	–	–	–	–	–	–	63	57	1740
CCCCc1nc2c(N)nnc(OC(C)C)c2n1Cc1ccccn1 [Compound 75, 2-butyl-7-isopropoxy-1-(pyridin-2-ylmethyl)-1H-imidazo[4,5-d]pyridazin-4-amine]	> 20000	–	–	–	–	–	–	17	34	5120
CCCCc1nc2c(N)nnc(N3CCC(c4ccccc4)C3)c2n1C (centres unmarked) [Compound 89, 2-butyl-1-methyl-7-(3-phenylpyrrolidin-1-yl)-1H-imidazo[4,5-d]pyridazin-4-amine]	7560	–	–	–	–	–	–	213	214	2350
